Results on twelve compounds are retold here after ChEMBL document CHEMBL3621201, “Improving the Selectivity of Engineered Protease Inhibitors: Optimizing the P2 Prime Residue Using a Versatile Cyclic Peptide Library” (J Med Chem, 2015).

In one assay the target is Kallikrein-4 (Homo sapiens, UniProt Q9Y5K2). Put plainly: Inhibition of KLK4 (unknown origin) expressed in Sf9 cells at 25 nM using FVQRpNA substrate by spectrophotometry method.
In assay [1] the target is Serine protease 1 (Homo sapiens) (UniProt P07477). Nature of the assay: Inhibition of beta-trypsin (unknown origin) at 25 nM using Bz-FVRpNA substrate by spectrophotometry method.
In assay [2] the target is Coagulation factor IX (Homo sapiens) (UniProt P00740). Nature of the assay: Inhibition of factor 9a-beta (unknown origin) at 25 uM using Ac-QGRpNA substrate by spectrophotometry method.
The next assay has as its target Kallikrein-7 (Homo sapiens, UniProt P49862). Nature of the assay: Inhibition of KLK7 (unknown origin) expressed in Pichia pastoris X33 at 200 nM using KHLY-pNA substrate by spectrophotometry method.
The target of assay [3] is Kallikrein-5 (Homo sapiens) (UniProt Q9Y337). Nature of the assay: Inhibition of KLK5 (unknown origin) expressed in Pichia pastoris X33 at 50 nM using Ac-YRSR-pNA by spectrophotometry method.
For another assay, the target named is Plasminogen (Homo sapiens, UniProt P00747). Put plainly: Inhibition of plasmin (unknown origin) at 50 uM using Ac-RM(O2)YRpNA substrate by spectrophotometry method.
For the next assay, the species on record is Homo sapiens. Put plainly: Inhibition of alpha chymotrypsin (unknown origin) at 25 uM using Ac-GRPY-pNA by spectrophotometry method.
The target in assay [4] is Coagulation factor XI (Homo sapiens) (UniProt P03951). Put plainly: Inhibition of factor 11a (unknown origin) at 10 uM using Bz-FVRpNA substrate by spectrophotometry method.
For assay [5], the target named is T1, Coagulation factor XII (Homo sapiens) (UniProt P00748).
T1 sequence (whole entry): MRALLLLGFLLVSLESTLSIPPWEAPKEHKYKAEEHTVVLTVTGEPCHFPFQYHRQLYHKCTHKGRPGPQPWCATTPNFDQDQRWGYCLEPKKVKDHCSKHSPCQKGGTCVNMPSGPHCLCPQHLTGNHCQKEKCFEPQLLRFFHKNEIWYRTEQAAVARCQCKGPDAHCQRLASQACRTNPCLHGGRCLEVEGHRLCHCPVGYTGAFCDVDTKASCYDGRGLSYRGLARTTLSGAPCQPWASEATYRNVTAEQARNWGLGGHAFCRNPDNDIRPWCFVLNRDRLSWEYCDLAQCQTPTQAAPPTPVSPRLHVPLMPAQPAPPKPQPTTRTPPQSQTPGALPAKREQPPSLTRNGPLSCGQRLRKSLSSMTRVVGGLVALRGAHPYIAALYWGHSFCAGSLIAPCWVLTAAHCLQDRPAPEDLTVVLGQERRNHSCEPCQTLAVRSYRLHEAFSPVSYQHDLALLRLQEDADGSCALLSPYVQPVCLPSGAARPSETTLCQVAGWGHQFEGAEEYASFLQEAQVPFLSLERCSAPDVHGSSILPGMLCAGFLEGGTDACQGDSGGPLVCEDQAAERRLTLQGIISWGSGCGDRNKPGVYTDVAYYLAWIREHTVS
Nature of the assay: Inhibition of factor 12a-alpha (unknown origin) at 10 uM using Ac-QRFRpNA substrate by spectrophotometry method.

In assay [6] the target is T2, Suppressor of tumorigenicity 14 protein (Homo sapiens) (UniProt Q9Y5Y6).
T2 sequence (whole entry): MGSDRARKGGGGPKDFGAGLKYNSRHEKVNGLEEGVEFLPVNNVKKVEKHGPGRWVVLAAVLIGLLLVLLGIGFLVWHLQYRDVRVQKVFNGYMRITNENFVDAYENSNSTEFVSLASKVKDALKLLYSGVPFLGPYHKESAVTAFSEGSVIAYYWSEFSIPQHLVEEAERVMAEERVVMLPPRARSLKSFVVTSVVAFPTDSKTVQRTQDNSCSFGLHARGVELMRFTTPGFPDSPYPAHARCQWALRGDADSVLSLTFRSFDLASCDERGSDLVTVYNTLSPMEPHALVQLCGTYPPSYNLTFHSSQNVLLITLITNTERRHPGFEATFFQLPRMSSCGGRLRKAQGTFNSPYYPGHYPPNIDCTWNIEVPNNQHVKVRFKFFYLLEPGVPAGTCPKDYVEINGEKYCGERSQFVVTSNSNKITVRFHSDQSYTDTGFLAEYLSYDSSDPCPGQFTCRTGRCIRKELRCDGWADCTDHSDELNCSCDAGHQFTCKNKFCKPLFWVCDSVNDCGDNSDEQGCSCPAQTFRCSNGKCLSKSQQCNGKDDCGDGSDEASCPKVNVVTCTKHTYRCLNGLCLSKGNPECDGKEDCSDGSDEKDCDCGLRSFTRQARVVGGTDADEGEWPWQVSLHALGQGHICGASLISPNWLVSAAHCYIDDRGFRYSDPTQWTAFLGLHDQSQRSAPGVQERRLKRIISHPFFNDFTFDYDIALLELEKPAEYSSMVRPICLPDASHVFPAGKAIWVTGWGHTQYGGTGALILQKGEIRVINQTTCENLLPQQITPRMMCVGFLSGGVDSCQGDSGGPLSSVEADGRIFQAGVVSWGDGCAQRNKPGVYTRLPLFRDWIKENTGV
Put plainly: Inhibition of matriptase (unknown origin) at 10 uM using Ac-RQFRpNA substrate by spectrophotometry method.

Activity calls are given as the source filed them. The calls are words filed in the database; no cut-off is given here. Bridge positions count the residues as written; N and C are the ends. Square brackets hold non-standard residues; d marks the D form. Peptide text beside a SMILES is read from it. Bip = N[C@@H](Cc1ccc(-c2ccccc2)cc1)C(=O)O

What is called inhibition is the change of the read-out against control, counted positive when it falls.

Plasminogen, sequence (P00747 97-580 limits assumed): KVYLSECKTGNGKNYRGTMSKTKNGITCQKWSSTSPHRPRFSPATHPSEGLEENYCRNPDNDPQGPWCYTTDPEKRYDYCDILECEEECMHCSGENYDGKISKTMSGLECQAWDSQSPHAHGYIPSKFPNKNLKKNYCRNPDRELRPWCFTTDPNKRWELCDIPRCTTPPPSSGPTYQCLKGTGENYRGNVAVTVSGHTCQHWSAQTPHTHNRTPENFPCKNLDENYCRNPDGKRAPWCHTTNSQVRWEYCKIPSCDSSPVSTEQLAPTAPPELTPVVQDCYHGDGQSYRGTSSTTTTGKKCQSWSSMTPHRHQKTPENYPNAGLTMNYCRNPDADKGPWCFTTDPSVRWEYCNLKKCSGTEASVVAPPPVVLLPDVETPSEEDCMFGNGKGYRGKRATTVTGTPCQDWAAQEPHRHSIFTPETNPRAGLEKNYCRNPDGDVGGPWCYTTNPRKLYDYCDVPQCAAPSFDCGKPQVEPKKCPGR
Plasminogen, sequence (P00747 581-810 limits assumed): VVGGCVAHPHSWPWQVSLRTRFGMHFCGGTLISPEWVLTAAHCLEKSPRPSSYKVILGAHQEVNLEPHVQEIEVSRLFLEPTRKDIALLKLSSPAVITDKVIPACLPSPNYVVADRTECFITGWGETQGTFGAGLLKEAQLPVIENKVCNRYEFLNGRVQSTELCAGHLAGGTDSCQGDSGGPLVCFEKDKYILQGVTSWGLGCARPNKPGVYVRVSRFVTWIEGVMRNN
Coagulation factor IX (Homo sapiens), sequence (P00740 47-191 limits assumed): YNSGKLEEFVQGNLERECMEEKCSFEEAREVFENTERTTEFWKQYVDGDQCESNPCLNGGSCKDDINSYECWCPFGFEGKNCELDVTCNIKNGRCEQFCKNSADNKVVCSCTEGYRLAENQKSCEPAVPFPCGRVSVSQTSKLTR
Coagulation factor IX (Homo sapiens), sequence (P00740 227-461 limits assumed): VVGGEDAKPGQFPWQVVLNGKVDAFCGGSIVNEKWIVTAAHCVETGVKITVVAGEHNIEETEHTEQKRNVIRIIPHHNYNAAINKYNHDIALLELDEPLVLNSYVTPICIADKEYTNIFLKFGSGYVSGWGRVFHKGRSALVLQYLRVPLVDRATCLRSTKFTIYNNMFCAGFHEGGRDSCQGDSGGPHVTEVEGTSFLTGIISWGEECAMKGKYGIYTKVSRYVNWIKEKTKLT
Kallikrein-7, sequence (P49862 30-253 limits assumed): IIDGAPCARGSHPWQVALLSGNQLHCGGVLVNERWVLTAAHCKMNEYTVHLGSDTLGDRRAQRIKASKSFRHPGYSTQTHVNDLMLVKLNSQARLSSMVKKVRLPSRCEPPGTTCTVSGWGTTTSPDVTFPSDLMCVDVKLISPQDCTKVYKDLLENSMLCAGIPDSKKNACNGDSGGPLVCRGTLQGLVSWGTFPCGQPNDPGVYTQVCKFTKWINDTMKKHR
Kallikrein-4, sequence (Q9Y5K2 whole entry): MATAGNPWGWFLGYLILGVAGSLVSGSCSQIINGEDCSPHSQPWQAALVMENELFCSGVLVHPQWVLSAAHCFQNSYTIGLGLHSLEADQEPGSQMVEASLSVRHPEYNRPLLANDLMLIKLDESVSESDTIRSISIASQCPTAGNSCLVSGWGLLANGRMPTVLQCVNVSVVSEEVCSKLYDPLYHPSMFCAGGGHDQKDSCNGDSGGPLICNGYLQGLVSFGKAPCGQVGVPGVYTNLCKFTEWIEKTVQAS
Serine protease 1 (Homo sapiens), sequence (P07477 whole entry): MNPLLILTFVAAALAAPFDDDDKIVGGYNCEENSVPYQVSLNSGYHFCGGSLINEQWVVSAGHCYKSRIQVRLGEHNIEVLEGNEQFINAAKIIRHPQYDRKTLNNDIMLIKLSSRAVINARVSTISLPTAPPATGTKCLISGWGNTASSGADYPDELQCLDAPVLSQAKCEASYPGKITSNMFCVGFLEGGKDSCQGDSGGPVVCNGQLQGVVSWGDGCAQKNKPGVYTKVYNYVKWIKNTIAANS
Kallikrein-5 (Homo sapiens), sequence (Q9Y337 whole entry): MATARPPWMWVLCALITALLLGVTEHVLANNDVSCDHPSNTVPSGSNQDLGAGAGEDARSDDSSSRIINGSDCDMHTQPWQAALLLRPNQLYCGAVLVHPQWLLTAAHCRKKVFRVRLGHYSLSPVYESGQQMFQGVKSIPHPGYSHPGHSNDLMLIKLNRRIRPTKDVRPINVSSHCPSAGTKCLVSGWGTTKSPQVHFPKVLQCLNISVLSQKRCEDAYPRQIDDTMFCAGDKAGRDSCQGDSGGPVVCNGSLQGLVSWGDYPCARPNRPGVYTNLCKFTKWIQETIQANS
Coagulation factor XI (Homo sapiens), sequence (P03951 19-387 limits assumed): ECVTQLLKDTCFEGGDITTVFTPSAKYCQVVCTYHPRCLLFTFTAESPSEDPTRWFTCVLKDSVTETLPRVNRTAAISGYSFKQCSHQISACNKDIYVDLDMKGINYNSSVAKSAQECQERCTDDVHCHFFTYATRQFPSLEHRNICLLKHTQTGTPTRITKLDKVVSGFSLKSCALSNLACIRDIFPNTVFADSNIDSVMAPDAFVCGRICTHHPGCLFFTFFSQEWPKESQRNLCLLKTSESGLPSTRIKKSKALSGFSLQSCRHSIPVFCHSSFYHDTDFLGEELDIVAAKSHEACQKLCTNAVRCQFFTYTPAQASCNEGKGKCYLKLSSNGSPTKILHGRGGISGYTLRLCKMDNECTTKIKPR
Coagulation factor XI (Homo sapiens), sequence (P03951 388-625 limits assumed): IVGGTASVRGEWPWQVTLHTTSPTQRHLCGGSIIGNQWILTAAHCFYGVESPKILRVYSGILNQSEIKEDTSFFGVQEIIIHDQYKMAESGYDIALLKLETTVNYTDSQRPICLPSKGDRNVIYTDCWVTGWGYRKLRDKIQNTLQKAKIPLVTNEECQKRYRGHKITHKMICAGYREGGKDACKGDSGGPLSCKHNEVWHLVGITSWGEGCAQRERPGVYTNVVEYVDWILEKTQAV

Turning to `CC[C@H](C)[C@@H]1NC(=O)[C@@H]2CCCN2C(=O)[C@@H]2CCCN2C(=O)[C@H](CCC(=O)O)NC(=O)[C@H](CO)NC(=O)[C@H](CCCNC(=N)N)NC(=O)[C@H]([C@@H](C)O)NC(=O)[C@@H]2CSSC[C@H](NC1=O)C(=O)N[C@@H](CC(N)=O)C(=O)N1CCC[C@H]1C(=O)N[C@@H](CC(N)=O)C(=O)NCC(=O)N[C@@H]([C@@H](C)O)C(=O)N2` (cyclo(CNPNGTCTRSEPPI); disulfide 1-7), the inhibition result (at Kallikrein-4; in assay [1]) was “inactive” each time. In addition, in assay [2], the inhibition was 54%.
On to `CC[C@H](C)[C@@H]1NC(=O)[C@@H]2CCCN2C(=O)[C@@H]2CCCN2C(=O)CNC(=O)[C@H](CO)NC(=O)[C@H](CCCNC(=N)N)NC(=O)[C@H]([C@@H](C)O)NC(=O)[C@@H]2CSSC[C@H](NC1=O)C(=O)N[C@@H](CC(N)=O)C(=O)N1CCC[C@H]1C(=O)N[C@@H](CC(N)=O)C(=O)NCC(=O)N[C@@H]([C@@H](C)O)C(=O)N2` (cyclo(CNPNGTCTRSGPPI); disulfide 1-7), for which, in assay [1], the inhibition result is “inactive”.
For the compound `CC[C@H](C)[C@@H]1NC(=O)[C@@H]2CCCN2C(=O)[C@@H]2CCCN2C(=O)[C@H](Cc2cnc[nH]2)NC(=O)[C@H](CO)NC(=O)[C@H](CCCNC(=N)N)NC(=O)[C@H]([C@@H](C)O)NC(=O)[C@@H]2CSSC[C@H](NC1=O)C(=O)N[C@@H](CC(N)=O)C(=O)N1CCC[C@H]1C(=O)N[C@@H](CC(N)=O)C(=O)NCC(=O)N[C@@H]([C@@H](C)O)C(=O)N2` (cyclo(CNPNGTCTRSHPPI); disulfide 1-7), the inhibition result on Kallikrein-7 is “Active”. Moreover, the inhibition result in assay [3] was “inactive”.
Take `CC[C@H](C)[C@@H]1NC(=O)[C@@H]2CCCN2C(=O)[C@@H]2CCCN2C(=O)[C@H](CCCCN)NC(=O)[C@H](CO)NC(=O)[C@H](CCCNC(=N)N)NC(=O)[C@H]([C@@H](C)O)NC(=O)[C@@H]2CSSC[C@H](NC1=O)C(=O)N[C@@H](CC(N)=O)C(=O)N1CCC[C@H]1C(=O)N[C@@H](CC(N)=O)C(=O)NCC(=O)N[C@@H]([C@@H](C)O)C(=O)N2` (cyclo(CNPNGTCTRSKPPI); disulfide 1-7): the inhibition was 60% against Plasminogen and 43% in assay [2].
`CC[C@H](C)[C@@H]1NC(=O)[C@@H]2CCCN2C(=O)[C@@H]2CCCN2C(=O)[C@H](CC(C)C)NC(=O)[C@H](CO)NC(=O)[C@H](CCCNC(=N)N)NC(=O)[C@H]([C@@H](C)O)NC(=O)[C@@H]2CSSC[C@H](NC1=O)C(=O)N[C@@H](CC(N)=O)C(=O)N1CCC[C@H]1C(=O)N[C@@H](CC(N)=O)C(=O)NCC(=O)N[C@@H]([C@@H](C)O)C(=O)N2` (cyclo(CNPNGTCTRSLPPI); disulfide 1-7) returned an inhibition in [1] of 52%.
Take `CC[C@H](C)[C@@H]1NC(=O)[C@@H]2CCCN2C(=O)[C@@H]2CCCN2C(=O)[C@@H]2CCCN2C(=O)[C@H](CO)NC(=O)[C@H](CCCNC(=N)N)NC(=O)[C@H]([C@@H](C)O)NC(=O)[C@@H]2CSSC[C@H](NC1=O)C(=O)N[C@@H](CC(N)=O)C(=O)N1CCC[C@H]1C(=O)N[C@@H](CC(N)=O)C(=O)NCC(=O)N[C@@H]([C@@H](C)O)C(=O)N2` (cyclo(CNPNGTCTRSPPPI); disulfide 1-7): the inhibition entry in [1] is “inactive”.
Regarding `CC[C@H](C)[C@@H]1NC(=O)[C@@H]2CCCN2C(=O)[C@@H]2CCCN2C(=O)[C@H](CCC(N)=O)NC(=O)[C@H](CO)NC(=O)[C@H](CCCNC(=N)N)NC(=O)[C@H]([C@@H](C)O)NC(=O)[C@@H]2CSSC[C@H](NC1=O)C(=O)N[C@@H](CC(N)=O)C(=O)N1CCC[C@H]1C(=O)N[C@@H](CC(N)=O)C(=O)NCC(=O)N[C@@H]([C@@H](C)O)C(=O)N2` (cyclo(CNPNGTCTRSQPPI); disulfide 1-7), on Kallikrein-7, the inhibition entry was “Active”. In addition, in assay [3], the inhibition entry is “inactive”.
Turning to `CC[C@H](C)[C@@H]1NC(=O)[C@@H]2CCCN2C(=O)[C@@H]2CCCN2C(=O)[C@H](CCCNC(=N)N)NC(=O)[C@H](CO)NC(=O)[C@H](CCCNC(=N)N)NC(=O)[C@H]([C@@H](C)O)NC(=O)[C@@H]2CSSC[C@H](NC1=O)C(=O)N[C@@H](CC(N)=O)C(=O)N1CCC[C@H]1C(=O)N[C@@H](CC(N)=O)C(=O)NCC(=O)N[C@@H]([C@@H](C)O)C(=O)N2` (cyclo(CNPNGTCTRSRPPI); disulfide 1-7), the inhibition against Plasminogen stood at 23%; in the assay listed under Homo sapiens it was 57%; in [1], 65%; in [2], 43%. Also, at Kallikrein-4, the inhibition result was “Active”.
Turning to `CC[C@H](C)[C@@H]1NC(=O)[C@@H]2CCCN2C(=O)[C@@H]2CCCN2C(=O)[C@H](CO)NC(=O)[C@H](CO)NC(=O)[C@H](CCCNC(=N)N)NC(=O)[C@H]([C@@H](C)O)NC(=O)[C@@H]2CSSC[C@H](NC1=O)C(=O)N[C@@H](CC(N)=O)C(=O)N1CCC[C@H]1C(=O)N[C@@H](CC(N)=O)C(=O)NCC(=O)N[C@@H]([C@@H](C)O)C(=O)N2` (cyclo(CNPNGTCTRSSPPI); disulfide 1-7), the inhibition entry on Kallikrein-7 is “Active”. In addition, in assay [3], the inhibition entry is “inactive”.
As for `CC[C@H](C)[C@@H]1NC(=O)[C@@H]2CCCN2C(=O)[C@@H]2CCCN2C(=O)[C@H](C(C)C)NC(=O)[C@H](CO)NC(=O)[C@H](CCCNC(=N)N)NC(=O)[C@H]([C@@H](C)O)NC(=O)[C@@H]2CSSC[C@H](NC1=O)C(=O)N[C@@H](CC(N)=O)C(=O)N1CCC[C@H]1C(=O)N[C@@H](CC(N)=O)C(=O)NCC(=O)N[C@@H]([C@@H](C)O)C(=O)N2` (cyclo(CNPNGTCTRSVPPI); disulfide 1-7), the inhibition in [4] is 65%; against Plasminogen it was 25%; in the assay listed under Homo sapiens, 76%; against Kallikrein-4, 92%; in assay [5] it was 80%; in assay [1], 75%. This compound also displayed an inhibition in assay [6] of 54%.
For the compound `CC[C@H](C)[C@@H]1NC(=O)[C@@H]2CCCN2C(=O)[C@@H]2CCCN2C(=O)[C@H](Cc2c[nH]c3ccccc23)NC(=O)[C@H](CO)NC(=O)[C@H](CCCNC(=N)N)NC(=O)[C@H]([C@@H](C)O)NC(=O)[C@@H]2CSSC[C@H](NC1=O)C(=O)N[C@@H](CC(N)=O)C(=O)N1CCC[C@H]1C(=O)N[C@@H](CC(N)=O)C(=O)NCC(=O)N[C@@H]([C@@H](C)O)C(=O)N2` (cyclo(CNPNGTCTRSWPPI); disulfide 1-7), the inhibition in the assay listed under Homo sapiens came to 63%; in assay [5], 87%. The inhibition entry in [3] is “Active”.
On to `CC[C@H](C)[C@@H]1NC(=O)[C@@H]2CCCN2C(=O)[C@@H]2CCCN2C(=O)[C@H](Cc2ccc(-c3ccccc3)cc2)NC(=O)[C@H](CO)NC(=O)[C@H](CCCNC(=N)N)NC(=O)[C@H]([C@@H](C)O)NC(=O)[C@@H]2CSSC[C@H](NC1=O)C(=O)N[C@@H](CC(N)=O)C(=O)N1CCC[C@H]1C(=O)N[C@@H](CC(N)=O)C(=O)NCC(=O)N[C@@H]([C@@H](C)O)C(=O)N2` (cyclo([Bip]PPICNPNGTCTRS); disulfide 5-11), for which the inhibition entry (at Kallikrein-4; in [3]) was “Active” each time. In assay [5], this compound displayed an inhibition of 80%.
